Test results taken from PMC4723341, “Ribonuclease H/DNA Polymerase HIV-1 Reverse Transcriptase Dual Inhibitor: Mechanistic Studies on the Allosteric Mode of Action of Isatin-Based Compound RMNC6” (PLoS ONE, 2016).

How the values were obtained:
p66/p51 HIV-1 RT = biological target: T1, p66/p51 HIV-1 RT (Human immunodeficiency virus type 1 group M subtype B, UniProt P04585); test: Thermal stability by differential scanning fluorimetry; format: binding; settings: increasing concentrations of inhibitor
T1 construct: The 1:1 ration between the p66/p51 subunits was also verified; made in house; host or cells: E. coli M15
Method: Thermal stability assays were performed according to Nettleship et al.. […] The mixture was heated from 30 to 90°C in increments of 0.2°C. Fluorescence intensity was measured using excitation and emission wavelengths of 483 and 568 nm, respectively. Changes in protein thermal stability (ΔTm) upon inhibitor binding were analyzed by using the LightCycler 480 software. All assays were performed in triplicate.

[1] = biological target: HIV-1 RT-associated RDDP activity, HIV-1 group O RT (Human immunodeficiency virus type 1 group O, UniProt Q79666); test: RDDP activity assay, HIV-1 group O RT; format: biochemical; settings: read-out: IC50 RDDP
Source text: Recombinant HIV-1 group O RT was expressed and purified as previously described. It was obtained as a heterodimer composed of subunits of 66 and 51 kDa, with a polyhistidine tag at the C-terminus of p66. For this purpose, the RT p66 subunit encoded within a p66RTB expression vector was co-expressed with the HIV-1 protease in E. coli XL-1 Blue, and the obtained heterodimers were then purified by ionic exchange followed by chromatography on Ni2+-nitriloacetic acid agarose. The enzyme was quantified by active site titration before biochemical studies.
RNA-dependent DNA polymerase (RDDP) activity was measured as described in 25 μL volume containing 60 mM Tris-HCl buffer pH 8.1, 8 mM MgCl2, 60 mM KCl, 13 mM DTT, 2.5 μM poly(A)-oligo(dT), 100 μM dTTP, increasing concentrations of inhibitors, whose dilution were made in water, and different amounts of enzymes according to a linear range of dose-response curve: 6 ng wt RT; 30 ng K103N RT; 12 ng V106ART; 19 ng V108A RT; 1.51.5 ng Y181C RT; 45 ng Y188A RT; 15 ng Y188L RT; 30 ng E224A RT; 15 ng P225A RT; 18 ng P226A RT; 23 ng F227A RT; 15 ng L228A RT; 30 ng W229A RT; 30 ng M230A RT; 15 ng G231A RT; 15 ng N474A RT; 15 ng Y501A RT; 15 ng A502F RT; 19 ng A508V RT; 38 ng HIV-1 group O RT. After enzyme addition, the reaction mixture was incubated for 30 min at 37°C and the stopped by addition of EDTA. […]

SMILES | Tm decrease of HIV-1 RT (p66/p51 HIV-1 RT) | IC50 [1]
Cc1sc2nc(-c3ccc(O)c(O)c3)[nH]c(=O)c2c1C [VU, 2-(3,4-dihydroxyphenyl)-5,6-dimethylthieno[2,3-d]pyrimidin-4(3H)-one] | 0.5−5.5 °C | –
O=C1Nc2ccc(Cl)cc2[C@@](C#CC2CC2)(C(F)(F)F)O1 [EFV, Efavirenz, reference compound] | – | 0.212 ± 0.046 µM
